According to US7863304B2, “Analogs of glycyl-prolyl-glutamate” (priority 2001, dated 2011):
Where a SMILES comes first, the peptide text is derived from it. [ ]: non-standard residue; d: D form. ξ: configuration not given here. Hyp = O=C(O)[C@@H]1C[C@@H](O)CN1; Nva = CCC[C@H](N)C(=O)O; ξPip = O=C(O)C1CCCCN1; Aib = CC(C)(N)C(=O)O

Columns and labels:
striatal cells = assay: Striatal cell culture, 30 nM okadaic acid injury, MTT viability; assay type: cell-based, Wistar rats; conditions: for neuroprotection against okadaic acid induced loss of cell viability: okadaic acid (30 nM), 24 h, MTT, striatal cell culture (FIGS. 3, 4, 6)
Description: (§1) Two pregnant Wistar rats (gestational day 18) underwent Caesarean section according to approved procedures from the Animal Ethics Committee of the University of Auckland. The Wistar dams were anaesthetised in a CO2-enriched atmosphere and sacrificed by subsequent spinal cord dislocation. The embryos were removed from their embryonic sacs and decapitated. After incisions into the skull with fine scissors, the embryonic brain was removed with a fine spatula. Striatal tissue was separated from neocortical tissue under the microscope and placed into serum-free DMEM/F-12 medium supplemented with penicillin/streptomycin (100 u/mL). Tissue underwent 15 trituration steps using a P1000 pipettor to obtain dissociated cells, which were centrifuged for 5 min at 250 G (4° C.) and the supernatant was discarded. Cells were re-suspended into 1 mL DMEM/F-12 medium and were kept on ice. Cell suspension (400,000 cells/cm2) was applied to 0.1 mg/mL poly-L-lysine pre-coated 96-well plates (3 h at 37° C.) and the volume was increased up to 100 μL with DMEM/F-12+5% FBS. Cells were cultivated at 37° C. in 100% humidity in a 5% CO2 atmosphere. After 24 h the medium was changed to serum-free Neurobasal/B27. Cell medium was changed every 3 days and maintained until 8 days in vitro (DWV).
(§2) Striatal cells were injured after 2, 3, 7 or 8 days in vitro. The injury paradigm involved 30 nM okadaic acid treatment with simultaneous administration of a GPE analog of this invention for 24 h. 1 μL of 3 μM okadaic acid stock solution together with 1 μL of GPE analog dissolved in PBS (vehicle received 2 μL of PBS) were incubated for 24 h with the striatal cells. Subsequently, 20 μL MTT (5 mg/mL in PBS) was added for 4 h. The reaction was terminated by addition of 100 μL 4% sodium dodecyl sulfate (SDS) solution. After 16-24 h incubation time, photometric extinction values are read at 595 nm. The difference between the vehicle and the okadaic acid injury condition was calculated. This value was set as the theoretical 100% recovery value. Measured values for the tested compounds were expressed in percentage of the 100% value. The unpaired Student's t-test was used for statistical analysis.

cortical cell culture = assay: Rat cortical dissociated cell culture, okadaic acid injury, MTT viability; conditions: 100 nM okadaic acid
Experimental: (§3) Embryonic E18/19 wistar rats were used for the generation of dissociated cortical cell cultures. The rear portion (occipital cortex-area 17/18 of the visual cortex) of the cortical plate is used for the generation of the cultures. Cells were grown for 3-10 DIV in one part of serum-free medium and one part of rat cortex-derived cultivated astrocytic-conditioned medium (ACM).
(§4) 96-well tissue culture plates were coated with 0.2 mg/ml poly-L-lysine followed by 2 μg/ml laminin. Subsequently 60 μl of ACM were added per well and plate was stored at 37° C. until plating of cortical cells.
(§5) Whole cortices of P1/2 wistar pups were collected into separate tubes containing 4 ml DMEM-1 cortex per tube. The tissues were triturated a few times with a 5 ml sterile pipette to break up them up into smaller pieces. Each tube was poured separately into a reagent reservoir and triturated once with a 5 ml syringe and 18 gauge drawing needle. The mixture was then filtered through a 100 μm cell strainer into a 50 ml centrifuge tube. The strainer was washed with 5 ml DMEM. The cell solution was extended with DMEM to 50 ml of volume. The solution was then centrifuged for 5mins at 350g at RT. The cells were resuspended in 40 ml of DMEM+10% FBS. The cells were then reconstituted into a 75 cm^2 cell flask and incubated at 37° C./10% CO2/100% humidity in […]. […] The medium was replaced after 1 day with fresh DMEM+10% FBS. The cell growth was monitored and media+FBS replaced twice weekly until the cells were confluent (˜10-14 days). Once the confluency reached, the cells were washed once with 20 ml sterile PBS. Cells were incubated for 3 days in 30 ml Neurobasal medium+B27 supplement to maintain cells under serum-free conditions. Cell supernatant was then filter through a 0.22 μm sterile filter and frozen in aliquots at −80° C.
(§6) The tissues were stored in PBS+glucose solution on ice until all dissection was completed. Tissue material was centrifuged at 350g for 5 mins at RT. The supernatant was removed and cell pellets were incubated in 5 ml trypsin/EDTA solution (Invitrogen) for 8 mins at 37° C. Proteolysis was stopped by addition of one part of DMEM+10% FBS. Subsequently, the tissued were centrifuged at 350g for 5 mins at RT. The pellet was collected, washed (centrifugation) twice in NB/B27 medium (Invitrogen) and resuspended in 1 ml NB/B27 medium. Tissue was transferred into a petri dish and triturated twice with a glass pasteur pipette attached to a pipette to break up large pieces of tissue. The tissue was then triturated twice using a 1 ml syringe and 22 gauge needle and passed through a 100 μm cell strainer to remove remaining large tissue pieces. The cells were washed with 1 ml NB/B27. The number of viable neurons was counted and the percentage of cell viability determined. […] The cortical cells were incubated at 37° C./10% CO2/100% humidity.
(§7) In order to induce neuronal injury the phosphatase 1/2A antagonist okadaic acid is added for 24 hrs. Simultaneously, an analog of GPE of this invention was administered. After 24 hrs metabolic activity was measured by addition of MTT for 2-4 hrs followed by addition of SDS-solution and photometric end point measurement at 595 nm.
(§8) Student's unpaired t-test is used for testing for statistical significance when comparing uninjured controls with the injured neuronal rescue agent containing conditions.

IGF-1 receptor = IGF-1 receptor (Homo sapiens, UniProt P08069); conditions: background statement; cited from earlier work
IGF-1 receptor, sequence (P08069 31-736 limits assumed): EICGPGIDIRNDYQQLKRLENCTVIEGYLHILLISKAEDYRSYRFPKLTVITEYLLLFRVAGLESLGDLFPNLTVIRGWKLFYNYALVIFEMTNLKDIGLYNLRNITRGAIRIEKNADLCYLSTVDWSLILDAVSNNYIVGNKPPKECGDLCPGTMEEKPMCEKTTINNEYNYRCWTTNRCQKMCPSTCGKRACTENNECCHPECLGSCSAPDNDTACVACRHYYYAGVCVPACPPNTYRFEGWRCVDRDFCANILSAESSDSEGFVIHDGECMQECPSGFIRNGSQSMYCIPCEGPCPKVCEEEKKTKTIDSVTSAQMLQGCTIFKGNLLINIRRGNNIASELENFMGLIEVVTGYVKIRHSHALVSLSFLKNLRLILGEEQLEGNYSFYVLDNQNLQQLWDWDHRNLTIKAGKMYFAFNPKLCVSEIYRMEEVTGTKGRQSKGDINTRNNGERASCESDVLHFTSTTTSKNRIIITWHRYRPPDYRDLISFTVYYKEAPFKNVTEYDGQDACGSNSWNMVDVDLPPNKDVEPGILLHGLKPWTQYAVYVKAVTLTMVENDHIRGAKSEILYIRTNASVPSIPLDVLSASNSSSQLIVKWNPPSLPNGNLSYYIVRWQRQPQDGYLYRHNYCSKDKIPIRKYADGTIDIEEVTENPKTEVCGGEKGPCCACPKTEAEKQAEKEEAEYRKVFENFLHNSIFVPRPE
IGF-1 receptor, sequence (P08069 741-1367 partner limits assumed): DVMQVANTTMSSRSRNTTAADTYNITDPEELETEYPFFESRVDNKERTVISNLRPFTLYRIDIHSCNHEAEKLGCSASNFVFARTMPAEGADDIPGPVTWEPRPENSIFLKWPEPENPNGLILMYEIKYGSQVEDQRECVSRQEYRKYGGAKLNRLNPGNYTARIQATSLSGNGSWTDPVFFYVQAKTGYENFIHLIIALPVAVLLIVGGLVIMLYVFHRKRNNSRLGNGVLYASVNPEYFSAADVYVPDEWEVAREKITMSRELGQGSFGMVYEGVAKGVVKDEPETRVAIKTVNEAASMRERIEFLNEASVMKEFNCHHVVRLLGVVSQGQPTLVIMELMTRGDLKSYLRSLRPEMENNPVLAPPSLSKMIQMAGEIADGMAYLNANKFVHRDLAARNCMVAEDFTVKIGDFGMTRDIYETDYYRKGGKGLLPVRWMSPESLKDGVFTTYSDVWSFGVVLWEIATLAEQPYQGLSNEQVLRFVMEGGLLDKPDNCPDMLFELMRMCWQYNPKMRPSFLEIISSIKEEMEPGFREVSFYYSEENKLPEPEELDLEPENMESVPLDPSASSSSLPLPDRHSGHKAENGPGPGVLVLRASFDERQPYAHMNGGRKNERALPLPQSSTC

[1] = tested on: N-methyl-D-aspartate (NMDA) receptor; conditions: background statement; cited from earlier work
[2] = Rat cortical dissociated cell culture, okadaic acid injury, MTT viability; conditions: Wistar, rat
Experimental: as §3, §4, §5, §6, §7, §8

[3] = Striatal cell culture, 30 nM okadaic acid injury, MTT viability; assay type: cell-based, Wistar rats; conditions: Wistar, rat; okadaic acid alone, other studies FIGS. 2-6 (striatal and cortical cultures); read-out: decrease in numbers of viable cells
Description: as §1, §2

cerebellar cells = assay: Cerebellar microexplant culture, 3-NP/glutamate injury, count of cells with neurites; assay type: cell-based, Wistar rats; conditions: toxin alone, cerebellar cell culture (FIG. 7)
Experimental: Postnatal day 3, 4 or 8 Wistar rats were used for the study. The rats were sacrificed and placed in ice for 1 minute, decapitated and the cerebellum removed and placed on ice. Cerebellum tissue was placed in 1 ml of 0.65% glucose-supplemented PBS (10 μl 65% stock D (+)glucose/1 ml PBS) in a large Petri dish, chopped up into smaller sections and triturated with a 1 ml insulin syringe via a 23 gauge (0.4 mm) needle, and then squirted back into the glucose solution in the Petri dish. The tissue was sieved through (125 µm pore size) and centrifuged (2 minutes at 60×g) twice to exchange the medium into serum-free BSA-supplemented START V medium (Biochrom, Germany). […]
After explants were exposed to a GPE analog of this invention for the study period, cells were then rinsed in PBS and then fixed in increasing concentrations of paraformaldehyde (500 μl of 0.4% PFA was applied; then 1.2% PFA; then 3% PFA and finally 4% PFA (each fixation step: 2-3 minutes). Finally, the microexplants were rinsed in PBS. Neurons in the explants were then evaluated for morphology (presence of neurites) and counted as live cells per microscopic field. Four fields displaying highest cell density were counted per cover slip and the data presented as mean ±standard error of the mean (SEM); n=4 each. Statistical significance was evaluated by using the non-paired Student's t-test.

[4] = 24 hrs, MTT, cortical cell culture (FIG. 1)

Structure (SMILES): NCC(=O)N1C[C@H](O)C[C@H]1C(=O)N[C@@H](CCC(=O)O)C(=O)O [analog 60, Glycyl-trans-4-hydroxy-L-prolyl-L-glutamic acid] (H-Gly-[Hyp]-Glu-OH)
- statistical significance of neuroprotective effect (striatal cells; at concentrations of 100 nM and 100 μM and 1 mM, 30 nM okadaic acid, striatal (FIG. 3)): statistically significant effects
- neuroprotection against okadaic acid induced loss of cell viability (striatal cells): neuroprorotective

Structure (SMILES): NCC(=O)N1CCC[C@H]1C(=O)N[C@@H](CCC(=O)O)C(=O)O [GPE, Glycyl-L-Prolyl-L-Glutamate]
- neuroprotection against okadaic acid induced loss of cell viability (cortical cell culture; [4]): reversed the okadaic acid induced loss of cell viability
- binding to IGF-1 receptor (IGF-1 receptor): does not bind
- binding affinity to NMDA receptor [1]: low affinity

Structure (SMILES): CCC[C@H](NC(=O)[C@@H]1CCCN1C(=O)CN)C(=O)O [analog 65, Glycyl-L-prolyl-L-Norvaline] (H-Gly-Pro-[Nva]-OH)
- protection against loss of cell viability induced by okadaic acid (cortical cell culture; at nearly every concentration tested (10 nM to 1 mM), cortical cell culture (FIG. 5)): 100%
- neuroprotection against okadaic acid induced loss of cell viability (cortical cell culture; broad range of concentrations, 10 nM to 1 mM, cortical cell culture (FIG. 5)): neuroprotective

Structure (SMILES): CC1(C)SCN(C(=O)CN)[C@@H]1C(=O)N[C@@H](CCC(=O)O)C(=O)O [analog 49, Glycyl-L-thia-5,5-dimethylprolyl-L-glutamic acid]
- neuroprotection against okadaic acid induced loss of cell viability (cortical cell culture; [4]): neuroprotective
- protection against loss of neural cell viability caused by okadaic acid (cortical cell culture; concentration range 10 nM to 10 μM, cortical cell culture (FIG. 1)): 100%

Structure (SMILES): CC(C)(N)C(=O)N1CCC[C@H]1C(=O)N[C@@H](CCC(=O)O)C(=O)O [analog 64, Aminoisobutryl-L-prolyl-L-glutamic acid] (H-[Aib]-Pro-Glu-OH)
- protection from the loss of neural cell viability induced by okadaic acid (striatal cells; at 1 mM, 30 nM okadaic acid, striatal (FIG. 4)): complete protection
- neuroprotective efficacy compared with GPE (striatal cells; concentration range 100 μM to 1 mM, 30 nM okadaic acid, striatal (FIG. 4)): more effective than GPE
- neuroprotection against okadaic acid induced loss of cell viability (striatal cells): neuroprotective

Structure (SMILES): NCC(=O)N1CCCCC1C(=O)N[C@@H](CCC(=O)O)C(=O)O (stereo partly drawn) [analog 66, Glycyl-D,L-pipecolinyl-L-glutamic Acid] (H-Gly-[ξPip]-Glu-OH)
- statistical significance of neuroprotective effect (striatal cells; at concentrations of 100 nM, 100 mM and 1 mM, okadaic acid, striatal (FIG. 6)): statistically significant effects
- neuroprotection against okadaic acid induced loss of cell viability (striatal cells): neuroprotective

Structure (SMILES): C=C1[C@@H](O)[C@@H]2O[C@]3(CC[C@H](/C=C/[C@@H](C)[C@@H]4CC(C)=C[C@@]5(O[C@H](C[C@@](C)(O)C(=O)O)CC[C@H]5O)O4)O3)CC[C@H]2O[C@@H]1[C@@H](O)C[C@H](C)[C@H]1O[C@@]2(CCCCO2)CC[C@H]1C [okadaic acid, reference compound]
- cytotoxicity at 24 h [2]: ~30%
- cytotoxicity at 24 h [3]: 10 to 50%
- decrease in the number of cells having neurites (cerebellar cells): over 80%
